This is an account of results in patent US20200078393A1, “COMPOSITION COMPRISING HYDROGEN GAS FOR SUPPRESSION OR PREVENTION OF CANCER METASTASIS” (MiZ Company Limited, priority 2018, published 2020).

Read-outs that look alike come from different tables or passages of the source.

In this experiment the test system is progressive prostatic cancer in stage 4 with confirmed bone metastasis.

As for `[HH]` [hydrogen gas, hydrogen], the PSA value is, setting by setting: (about 1 month after suction started, hydrogen 6.6% by volume, 60 to 90 minutes/day, with bicalutamide, Flivas OD, initial 92.5) 12.74 ng/mL; (about 2 months after suction started, with internal medicines, before the anticancer agent infusion) 7.53 ng/mL; (about 12.5 months after suction started, with internal medicines, docetaxel infusions and hormone injections) 1.69 ng/mL. Also, the “shade densities at the parts of bone metastasis, whole body scintigraphy” value (about 12 months after suction started, visually inspected, combined therapy) is given as “a half or less”.
